Test results taken from EP0820989A1, “IMIDAZOLE DERIVATIVES AND MEDICINAL COMPOSITION THEREOF” (YAMANOUCHI PHARMACEUTICAL CO., LTD., priority 1995, dated 1996).
Where two headings read alike, the source gives them in different places.

Biological target: T1, rat steroid 17-20 lyase (Rattus norvegicus, UniProt P11715)
T1 construct: Testes were excised from ten-week-old male Wistar rats, homogenized and then centrifuged to give microsomes; from tissue; host or cells: testis microsomes of ten-week-old male Wistar rats
T1 sequence (P11715 1-507): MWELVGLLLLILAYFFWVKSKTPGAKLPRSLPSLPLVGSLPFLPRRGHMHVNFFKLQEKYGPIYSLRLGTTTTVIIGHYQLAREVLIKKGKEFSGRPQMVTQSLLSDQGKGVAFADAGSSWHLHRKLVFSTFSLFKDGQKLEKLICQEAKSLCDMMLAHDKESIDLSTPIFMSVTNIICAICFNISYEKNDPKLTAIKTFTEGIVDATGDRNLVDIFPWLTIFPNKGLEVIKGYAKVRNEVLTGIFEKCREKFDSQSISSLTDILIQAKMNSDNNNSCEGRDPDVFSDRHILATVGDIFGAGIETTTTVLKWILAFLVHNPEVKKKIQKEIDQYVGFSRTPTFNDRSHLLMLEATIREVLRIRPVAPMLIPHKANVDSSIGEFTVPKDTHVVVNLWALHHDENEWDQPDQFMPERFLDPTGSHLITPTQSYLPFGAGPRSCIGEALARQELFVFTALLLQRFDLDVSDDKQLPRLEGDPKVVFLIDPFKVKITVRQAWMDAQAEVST
Assay: Measurement of inhibition of rat steroid 17-20 lyase activity [in vitro]
Format: biochemical
Description: (1) Measurement of inhibition of rat steroid 17-20 lyase activity [in vitro]
This was carried out in accordance with the method described in J. Steroid Biochem., Vol.33, No.6, 1191-1195 (1989).
Testes were excised from ten-week-old male Wistar rats, homogenized and then centrifuged to give microsomes. The microsomal protein (50 µg), 1 µM of [1,2-^3H]-17α-hydroxyprogesterone (5.55 × 10^5 dpm) and a test compound were dissolved in 100 µl of 50 mM phosphate buffer (pH 7.4), NADPH solution was added, and then the mixture was incubated at 37°C for 60 minutes. Then, 400 µl of a mixed solution of methanol and tetrahydrofuran (2:3) was added, and the mixture was subjected to centrifugation, and then radioactivities of the substrate and the formed product (androstenedione and testosterone) in the resulting supernatant were measured by a high performance liquid chromatography (HPLC) equipped with a radioisotope detector to examine the activity of the test compound to inhibit steroid 17-20 lyase.

Which IC50 does the source give for `CCCn1cncc1Cc1ccc2c(c1)[nH]c1ccccc12` [Example 13, 2-[(1-Propyl-1H-imidazol-5-yl)methyl]-9H-carbazole] here?
The IC50 was 2.5 nM.

`CC(c1ccc2c(c1)[nH]c1ccccc12)c1c[nH]cn1` (stereo not drawn) [Example 1e, 2-[1-(1H-Imidazol-4-yl)ethyl]-9H-carbazole] was tested. Which IC50 did it give?
The IC50 was 3.9 nM.

`Fc1ccc2c(c1)[nH]c1cc(Cc3cccnc3)ccc12` [Control compound, reference compound] was tested. Which IC50 (rat testis microsomes (50 µg protein), 1 µM [1,2-3H]-17α-hydroxyprogesterone, NADPH, pH 7.4, 37°C, 60 minutes, HPLC, read-out: Inhibition of steroid 17-20 lyase activity IC50) did it give?
Its IC50 is 12.7 nM.
